#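 Interpolation was linear, between the two tested concentrations surrounding the appropriate level; five concentrations were tested over 48 hours in 96-well plates. At the GI50, growth is halved. At the TGI there is no net growth.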
# Experiments:
# Assay in all cases: NCI anticancer screen, dose series, 48 h
# MDA-MB-231 breast = system: MDA-MB-231 breast
# HL-60(TB) leukemia = system: HL-60(TB) leukemia
# OVCAR-4 ovarian = system: OVCAR-4 ovarian
# LOX IMVI melanoma = system: LOX IMVI melanoma
# OVCAR-5 ovarian = system: OVCAR-5 ovarian
# TK-10 renal = system: TK-10 renal
# A498 renal = system: A498 renal
# SR leukemia = system: SR leukemia
# HCT-116 colon = system: HCT-116 colon
# SF-539 CNS = system: SF-539 CNS
# CAKI-1 renal = system: CAKI-1 renal
# NCI-H23 lung = system: NCI-H23 lung
# SK-OV-3 ovarian = system: SK-OV-3 ovarian
# U251 CNS = system: U251 CNS
# NCI/ADR-RES ovarian = system: NCI/ADR-RES ovarian
# OVCAR-8 ovarian = system: OVCAR-8 ovarian
# SK-MEL-2 melanoma = system: SK-MEL-2 melanoma
# MCF7 breast = system: MCF7 breast
# SK-MEL-5 melanoma = system: SK-MEL-5 melanoma
# RXF 393 renal = system: RXF 393 renal
# HOP-62 NSCLC = system: HOP-62 NSCLC
# CCRF-CEM leukemia = system: CCRF-CEM leukemia
# KM12 colon = system: KM12 colon
# HS 578T breast = system: HS 578T breast
# UACC-62 melanoma = system: UACC-62 melanoma
# UO-31 renal = system: UO-31 renal
# HOP-92 NSCLC = system: HOP-92 NSCLC
# K-562 leukemia = system: K-562 leukemia
# PC-3 prostate = system: PC-3 prostate
# SK-MEL-28 melanoma = system: SK-MEL-28 melanoma
# SN12C renal = system: SN12C renal
# EKVX NSCLC = system: EKVX NSCLC
# SW-620 colon = system: SW-620 colon
# UACC-257 melanoma = system: UACC-257 melanoma
# T-47D breast = system: T-47D breast
# BT-549 breast = system: BT-549 breast
# SNB-19 CNS = system: SNB-19 CNS
# HT29 colon = system: HT29 colon
# DU-145 prostate = system: DU-145 prostate
# MDA-MB-435 = system: MDA-MB-435
# IGROV1 ovarian = system: IGROV1 ovarian
# OVCAR-3 ovarian = system: OVCAR-3 ovarian
# SF-295 CNS = system: SF-295 CNS
# MOLT-4 leukemia = system: MOLT-4 leukemia
# A549 NSCLC = system: A549 NSCLC
# RPMI-8226 leukemia = system: RPMI-8226 leukemia
# 786-0 renal = system: 786-0 renal
# MALME-3M melanoma = system: MALME-3M melanoma
# NCI-H522 lung = system: NCI-H522 lung
# M14 melanoma = system: M14 melanoma
# NCI-H460 lung = system: NCI-H460 lung
# SNB-75 CNS = system: SNB-75 CNS
# SF-268 CNS = system: SF-268 CNS
# HCC-2998 colon = system: HCC-2998 colon
# ACHN renal = system: ACHN renal
# HCT-15 colon = system: HCT-15 colon
# NCI-H226 lung = system: NCI-H226 lung
# COLO 205 colon = system: COLO 205 colon
compound,measurement,setting,value
Cc1ccc(-c2nc3nc(-c4ccc(Br)cc4)nc(N4CCCNCC4)c3o2)cc1,GI50,MDA-MB-231 breast,1930 nM
same,TGI,MDA-MB-231 breast,4.05 µM
same,GI50,HL-60(TB) leukemia,1990 nM
same,TGI,HL-60(TB) leukemia,4.07 µM
same,GI50,OVCAR-4 ovarian,7.2 µM
same,TGI,OVCAR-4 ovarian,21 µM
same,GI50,LOX IMVI melanoma,1760 nM
same,TGI,LOX IMVI melanoma,3.34 µM
same,GI50,OVCAR-5 ovarian,16.3 µM
same,TGI,OVCAR-5 ovarian,30 µM
same,GI50,TK-10 renal,20 µM
same,TGI,TK-10 renal,34.8 µM
same,GI50,A498 renal,13.9 µM
same,TGI,A498 renal,27.5 µM
same,GI50,SR leukemia,1780 nM
same,TGI,SR leukemia,4.4 µM
same,GI50,HCT-116 colon,1820 nM
same,TGI,HCT-116 colon,3.36 µM
same,GI50,SF-539 CNS,3.27 µM
same,TGI,SF-539 CNS,11.4 µM
same,GI50,CAKI-1 renal,1580 nM
same,TGI,CAKI-1 renal,2920 nM
same,GI50,NCI-H23 lung,17.1 µM
same,TGI,NCI-H23 lung,34.9 µM
same,GI50,SK-OV-3 ovarian,17.5 µM
same,TGI,SK-OV-3 ovarian,33.4 µM
same,GI50,U251 CNS,1770 nM
same,TGI,U251 CNS,3.45 µM
same,GI50,NCI/ADR-RES ovarian,2200 nM
same,TGI,NCI/ADR-RES ovarian,4.58 µM
same,GI50,OVCAR-8 ovarian,2280 nM
same,TGI,OVCAR-8 ovarian,5.28 µM
same,GI50,SK-MEL-2 melanoma,18.5 µM
same,TGI,SK-MEL-2 melanoma,36.3 µM
same,GI50,MCF7 breast,1780 nM
same,TGI,MCF7 breast,3.51 µM
same,GI50,SK-MEL-5 melanoma,16.7 µM
same,TGI,SK-MEL-5 melanoma,31.6 µM
same,GI50,RXF 393 renal,13.7 µM
same,TGI,RXF 393 renal,27.5 µM
same,GI50,HOP-62 NSCLC,15.8 µM
same,TGI,HOP-62 NSCLC,35.1 µM
same,GI50,CCRF-CEM leukemia,2350 nM
same,TGI,CCRF-CEM leukemia,5.57 µM
same,GI50,KM12 colon,1930 nM
same,TGI,KM12 colon,3.82 µM
same,GI50,HS 578T breast,17.2 µM
same,TGI,HS 578T breast,37.1 µM
same,GI50,UACC-62 melanoma,17 µM
same,TGI,UACC-62 melanoma,31.9 µM
same,GI50,UO-31 renal,2120 nM
same,TGI,UO-31 renal,7.04 µM
same,GI50,HOP-92 NSCLC,12.7 µM
same,TGI,HOP-92 NSCLC,29.5 µM
same,GI50,K-562 leukemia,2310 nM
same,TGI,K-562 leukemia,4.98 µM
same,GI50,PC-3 prostate,2480 nM
same,TGI,PC-3 prostate,7.52 µM
same,GI50,SK-MEL-28 melanoma,17.4 µM
same,TGI,SK-MEL-28 melanoma,31.8 µM
same,GI50,SN12C renal,10.5 µM
same,TGI,SN12C renal,23.7 µM
same,GI50,EKVX NSCLC,13.8 µM
same,TGI,EKVX NSCLC,28.4 µM
same,GI50,SW-620 colon,1840 nM
same,TGI,SW-620 colon,3.57 µM
same,GI50,UACC-257 melanoma,18.2 µM
same,TGI,UACC-257 melanoma,39.7 µM
same,GI50,T-47D breast,3.06 µM
same,TGI,T-47D breast,13.9 µM
same,GI50,BT-549 breast,16 µM
same,TGI,BT-549 breast,34.6 µM
same,GI50,SNB-19 CNS,14.1 µM
same,TGI,SNB-19 CNS,27.6 µM
same,GI50,HT29 colon,1860 nM
same,TGI,HT29 colon,3.54 µM
same,GI50,DU-145 prostate,1920 nM
same,TGI,DU-145 prostate,3.55 µM
same,GI50,MDA-MB-435,1880 nM
same,TGI,MDA-MB-435,3.74 µM
same,GI50,IGROV1 ovarian,1840 nM
same,TGI,IGROV1 ovarian,3.61 µM
same,GI50,OVCAR-3 ovarian,1840 nM
same,TGI,OVCAR-3 ovarian,3.36 µM
same,GI50,SF-295 CNS,17.9 µM
same,TGI,SF-295 CNS,33 µM
same,GI50,MOLT-4 leukemia,2080 nM
same,TGI,MOLT-4 leukemia,4.14 µM
same,GI50,A549 NSCLC,1960 nM
same,TGI,A549 NSCLC,4.04 µM
same,GI50,RPMI-8226 leukemia,2580 nM
same,TGI,RPMI-8226 leukemia,6.63 µM
same,GI50,786-0 renal,3.95 µM
same,TGI,786-0 renal,16 µM
same,GI50,MALME-3M melanoma,15.4 µM
same,TGI,MALME-3M melanoma,30.1 µM
same,GI50,NCI-H522 lung,1860 nM
same,TGI,NCI-H522 lung,4.5 µM
same,GI50,M14 melanoma,4.64 µM
same,TGI,M14 melanoma,18.1 µM
same,GI50,NCI-H460 lung,1900 nM
same,TGI,NCI-H460 lung,3.61 µM
same,GI50,SNB-75 CNS,10.5 µM
same,TGI,SNB-75 CNS,22.4 µM
same,GI50,SF-268 CNS,3.63 µM
same,TGI,SF-268 CNS,15.2 µM
same,GI50,HCC-2998 colon,15.4 µM
same,TGI,HCC-2998 colon,30.2 µM
same,GI50,ACHN renal,1910 nM
same,TGI,ACHN renal,3.59 µM
same,GI50,HCT-15 colon,1720 nM
same,TGI,HCT-15 colon,3.25 µM
same,GI50,NCI-H226 lung,17 µM
same,TGI,NCI-H226 lung,38.9 µM
same,GI50,COLO 205 colon,5.56 µM
same,TGI,COLO 205 colon,20.2 µM
